Source: US6914045B2, “Glycopeptide antibiotics” (Wyeth Holdings Corporation, priority 2001, dated 2005)
In brackets after ≈: the same amount, converted by molar mass.

What was measured:
Assay in all cases: in vitro antibacterial evaluation, MIC by broth dilution
Assay type in all cases: cell-based
Escherichia coli = tested on: Escherichia coli
How it was run: (§1)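 Broth dilution per NCCLS M7-A2 in Mueller-Hinton II medium, inoculum 5×10^5 CFU/mL, antibiotic range 64-0.06 μg/mL. MIC taken as lowest concentration inhibiting growth; Gram-positive panel includes recent clinical isolates resistant to methicillin, penicillin and/or vancomycin.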

Streptococcus sp. = settings: broth dilution, 18 hours at 35° C.; for MIC Streptococcus pneumoniae (ATCC 6301): strain ATCC 6301; for MIC Streptococcus pneumoniae (GC 1894): strain GC 1894; for MIC Streptococcus pyogenes (GC 4563): strain GC 4563; for MIC Streptococcus agalactiae (GC 4564): strain GC 4564; for MIC Streptococcus pneumoniae (GC 4565): strain GC 4565
How it was run: as §1

Staphylococcus sp. = settings: broth dilution, 18 hours at 35° C.; for MIC Staphylococcus aureus (GC 1131): strain GC 1131
How it was run: as §1

Enterococcus sp. = settings: broth dilution, 18 hours at 35° C.; for MIC Enterococcus faecalis (ATCC 29212): strain ATCC 29212; for MIC Enterococcus faecalis (GC 2242): strain GC 2242; for MIC Enterococcus faecium (GC 2243): strain GC 2243; for MIC Enterococcus faecalis (GC 2691): strain GC 2691; for MIC Enterococcus faecalis (GC 3059): strain GC 3059; for MIC Enterococcus faecalis (GC 4552): strain GC 4552; for MIC Enterococcus faecalis (GC 4553): strain GC 4553; for MIC Enterococcus faecalis (GC 4554): strain GC 4554; for MIC Enterococcus faecium (GC 4556): strain GC 4556; for MIC Enterococcus faecium (GC 4557): strain GC 4557; for MIC Enterococcus avium (GC 4558): strain GC 4558; for MIC Enterococcus faecalis (GC 6189): strain GC 6189
How it was run: as §1

In the case of `CC(c1ccccc1)C1NC(=O)CNC(=O)C(CO)NC(=O)C(C(O)C2CNC(=N)N2C2OC(CO)C(O)C(O)C2O)NC(=O)C(C(O)C2CNC(=N)N2)NC(=O)C(Cc2ccc(OC3OC(CO)C(OC4OC(CO)C(O)C5OC(c6ccc(-c7ccsc7)cc6)OC45)C(O)C3O)cc2)NC1=O` (stereo not drawn) [Example 164a], the “MIC Escherichia coli (ATCC 25922)” value (Escherichia coli; strain ATCC 25922, 18 hours at 35° C.) is reported as 32 µg/mL (≈ 21.8 µM), the “MIC Escherichia coli (GC 4559)” value (Escherichia coli; strain GC 4559, 18 hours at 35° C.) is reported as 32 µg/mL (≈ 21.8 µM) and the “MIC Escherichia coli (GC 4560)” value (Escherichia coli; strain GC 4560, 18 hours at 35° C.) is reported as 8 µg/mL (≈ 5.46 µM). The “MIC Streptococcus pneumoniae (ATCC 6301)” value (Streptococcus sp.; inoculum 5×10^5 CFU/mL) was 1 µg/mL (≈ 0.682 µM), the “MIC Streptococcus pneumoniae (GC 1894)” value (Streptococcus sp.; inoculum 5×10^5 CFU/mL) was 0.25 µg/mL (≈ 0.171 µM) and the “MIC Streptococcus pyogenes (GC 4563)” value (Streptococcus sp.; inoculum 5×10^5 CFU/mL) was 0.5 µg/mL (≈ 0.341 µM). The “MIC Streptococcus agalactiae (GC 4564)” value (Streptococcus sp.; inoculum 5×10^5 CFU/mL) was 1 µg/mL (≈ 0.682 µM), the “MIC Streptococcus pneumoniae (GC 4565)” value (Streptococcus sp.; inoculum 5×10^5 CFU/mL) was 1 µg/mL (≈ 0.682 µM) and the “MIC Streptococcus pneumoniae (ATCC 6301)” value (Streptococcus sp.) was 1 µg/mL (≈ 0.682 µM). The “MIC Streptococcus pneumoniae (GC 1894)” value (Streptococcus sp.) was 0.25 µg/mL (≈ 0.171 µM), the “MIC Streptococcus pyogenes (GC 4563)” value (Streptococcus sp.) was 0.5 µg/mL (≈ 0.341 µM) and the “MIC Streptococcus agalactiae (GC 4564)” value (Streptococcus sp.) was 1 µg/mL (≈ 0.682 µM). The “MIC Streptococcus pneumoniae (GC 4565)” value (Streptococcus sp.) was 1 µg/mL (≈ 0.682 µM), the “MIC Staphylococcus aureus (GC 1131)” value (Staphylococcus sp.; inoculum 5×10^5 CFU/mL) was 8 µg/mL (≈ 5.46 µM) and the “MIC Staphylococcus aureus (ATCC 29213)” value (Staphylococcus sp.; strain ATCC 29213) was 8 µg/mL (≈ 5.46 µM). For the same compound, the “MIC Staphylococcus aureus (GC 1131)” value (Staphylococcus sp.) was 8 µg/mL (≈ 5.46 µM), the “MIC Staphylococcus aureus (GC 3051)” value (Staphylococcus sp.; strain GC 3051) was 8 µg/mL (≈ 5.46 µM) and the “MIC Staphylococcus aureus (GC 3053)” value (Staphylococcus sp.; strain GC 3053) was 8 µg/mL (≈ 5.46 µM). For the same compound, the “MIC Staphylococcus aureus (GC 4541)” value (Staphylococcus sp.; strain GC 4541) was 8 µg/mL (≈ 5.46 µM), the “MIC Staphylococcus aureus (GC 4542)” value (Staphylococcus sp.; strain GC 4542) was 16 µg/mL (≈ 10.9 µM) and the “MIC Staphylococcus aureus-SMITH (GC 4543)” value (Staphylococcus sp.; strain GC 4543) was 8 µg/mL (≈ 5.46 µM). For the same compound, the “MIC Staphylococcus aureus (GC 4544)” value (Staphylococcus sp.; strain GC 4544) was 8 µg/mL (≈ 5.46 µM), the “MIC Staphylococcus aureus (GC 4545)” value (Staphylococcus sp.; strain GC 4545) was 8 µg/mL (≈ 5.46 µM) and the “MIC Staphylococcus haemolyticus (GC 4546)” value (Staphylococcus sp.; strain GC 4546) was 4 µg/mL (≈ 2.73 µM). For the same compound, the “MIC Coagulase Negative Staphylococcus (GC 4547)” value (Staphylococcus sp.; strain GC 4547) was 8 µg/mL (≈ 5.46 µM), the “MIC Coagulase Negative Staphylococcus (GC 4548)” value (Staphylococcus sp.; strain GC 4548) was 4 µg/mL (≈ 2.73 µM) and the “MIC Coagulase Negative Staphylococcus (GC 4549)” value (Staphylococcus sp.; strain GC 4549) was 4 µg/mL (≈ 2.73 µM). The “MIC Coagulase Negative Staphylococcus (GC 4551)” value (Staphylococcus sp.; strain GC 4551) was 8 µg/mL (≈ 5.46 µM), the “MIC Coagulase Negative Staphylococcus (GC 6257)” value (Staphylococcus sp.; strain GC 6257) was 4 µg/mL (≈ 2.73 µM) and the “MIC Staphylococcus aureus-SMITH (GC 4543)” value (Staphylococcus sp.; strain SMITH GC 4543) was 8 µg/mL (≈ 5.46 µM). The “MIC Enterococcus faecalis (ATCC 29212)” value (Enterococcus sp.; inoculum 5×10^5 CFU/mL) was 16 µg/mL (≈ 10.9 µM), the “MIC Enterococcus faecalis (GC 2242)” value (Enterococcus sp.; inoculum 5×10^5 CFU/mL) was 16 µg/mL (≈ 10.9 µM) and the “MIC Enterococcus faecium (GC 2243)” value (Enterococcus sp.; inoculum 5×10^5 CFU/mL) was 8 µg/mL (≈ 5.46 µM). The “MIC Enterococcus faecalis (GC 2691)” value (Enterococcus sp.; inoculum 5×10^5 CFU/mL) was 16 µg/mL (≈ 10.9 µM), the “MIC Enterococcus faecalis (GC 3059)” value (Enterococcus sp.; inoculum 5×10^5 CFU/mL) was 16 µg/mL (≈ 10.9 µM) and the “MIC Enterococcus faecalis (GC 4552)” value (Enterococcus sp.; inoculum 5×10^5 CFU/mL) was 16 µg/mL (≈ 10.9 µM). For the same compound, the “MIC Enterococcus faecalis (GC 4553)” value (Enterococcus sp.; inoculum 5×10^5 CFU/mL) was 16 µg/mL (≈ 10.9 µM), the “MIC Enterococcus faecalis (GC 4554)” value (Enterococcus sp.; inoculum 5×10^5 CFU/mL) was 16 µg/mL (≈ 10.9 µM) and the “MIC Enterococcus faecium (GC 4556)” value (Enterococcus sp.; inoculum 5×10^5 CFU/mL) was 16 µg/mL (≈ 10.9 µM). For the same compound, the “MIC Enterococcus faecium (GC 4557)” value (Enterococcus sp.; inoculum 5×10^5 CFU/mL) was 4 µg/mL (≈ 2.73 µM), the “MIC Enterococcus avium (GC 4558)” value (Enterococcus sp.; inoculum 5×10^5 CFU/mL) was 8 µg/mL (≈ 5.46 µM) and the “MIC Enterococcus faecalis (GC 6189)” value (Enterococcus sp.; inoculum 5×10^5 CFU/mL) was 16 µg/mL (≈ 10.9 µM). The “MIC Enterococcus faecalis (ATCC 29212)” value (Enterococcus sp.) was 16 µg/mL (≈ 10.9 µM), the “MIC Enterococcus faecalis (GC 2242)” value (Enterococcus sp.) was 16 µg/mL (≈ 10.9 µM) and the “MIC Enterococcus faecium (GC 2243)” value (Enterococcus sp.) was 8 µg/mL (≈ 5.46 µM). For the same compound, the “MIC Enterococcus faecalis (GC 2691)” value (Enterococcus sp.) was 16 µg/mL (≈ 10.9 µM), the “MIC Enterococcus faecalis (GC 3059)” value (Enterococcus sp.) was 16 µg/mL (≈ 10.9 µM) and the “MIC Enterococcus faecalis (GC 4552)” value (Enterococcus sp.) was 16 µg/mL (≈ 10.9 µM). The “MIC Enterococcus faecalis (GC 4553)” value (Enterococcus sp.) was 16 µg/mL (≈ 10.9 µM), the “MIC Enterococcus faecalis (GC 4554)” value (Enterococcus sp.) was 16 µg/mL (≈ 10.9 µM) and the “MIC Enterococcus faecium (GC 4556)” value (Enterococcus sp.) was 16 µg/mL (≈ 10.9 µM). For the same compound, the “MIC Enterococcus faecium (GC 4557)” value (Enterococcus sp.) was 4 µg/mL (≈ 2.73 µM), the “MIC Enterococcus avium (GC 4558)” value (Enterococcus sp.) was 8 µg/mL (≈ 5.46 µM) and the “MIC Enterococcus faecalis (GC 6189)” value (Enterococcus sp.) was 16 µg/mL (≈ 10.9 µM).
